Measurements from patent publication US5204352A, “Compounds exhibiting anti-parasitic activity and a method for their use” (The United States of America as represented by the …, priority 1987, dated 1993).

How the values were obtained:
Trypanosoma rhodesiense [1] = conditions: previously known bis-amidine and bis-guanylhydrazones; cited from earlier work
in vivo = test: in vivo; parameters: species or system mice; conditions: mouse, sc
Protocol: The preferred mode of administration of these compounds is subcutaneously. With subcutaneous administration, however, many of the compounds show lethal toxicity at very high dosage amounts. Thus, it is also possible to administer these compounds peritoneally. Compounds which are subcutaneously active are generally peritoneally active at higher doses. Further, none of the compounds administered peritoneally have shown lethal toxicity at dosages up to 400 mg/kg.
(§1) The compounds of the present invention were evaluated biologically in vivo with groups of 5 mice at various dose levels. Unless otherwise indicated, the data are for subcutaneous administration. Dose levels marked with an asterisk are for peritoneal administration in a HEC+T medium. In addition, Table 2 present results of peritoneal administration with substituted quanylhydrazones. The biological evaluation was done according to a standard protocol based on the method described by Rane et al., Amer. J. Trop. Med Hyg. 25:395 (1976).

Trypanosoma rhodesiense [2] = test: In vivo trypanocidal activity in infected mice (protocol based on Rane et al.); conditions: for Activity at dosage (C = Cures): peritoneal (Table 2)
Protocol: as §1, with “(1976). […]” for “(1976).”

[3] = 424* mg/kg, peritoneal in HEC+T medium (Table I)

SMILES: N=C(N)c1cccc(NC(=O)Nc2cccc(C(=N)N)c2)c1 [aminocarbilide]
- Trypanocidal activity (Trypanosoma rhodesiense [1]): show trypanocidal activity

SMILES: CC(=NNC(=N)N)c1cccc(C(C)=NNC(=N)N)c1 [m-diacetylbenzene-bis-guanylhydrazone]
- Trypanocidal activity (Trypanosoma rhodesiense [1]): show trypanocidal activity

SMILES: N=C(N)c1ccc(-c2cc3ccc(C(=N)N)cc3[nH]2)cc1 [DAPI, 2-phenylindole-5-4'-bis-carboxamidine]
- Trypanocidal activity (Trypanosoma rhodesiense [1]): show trypanocidal activity

SMILES: Cc1ccc2n(c1)cc(-c1ccc(C=NNC3=NCCCN3)cc1)[n+]2C [2-(3,4,5,6-tetrahydropyrimidyI)hydrazone of 1,6-dimethyl-2-(4'-formylphenyl)imidazo[1,2-a]-pyridinium bromide]
- MTD (in vivo): ~100 mg/kg

SMILES: N=C(N)c1ccc(OCCCCCOc2ccc(C(=N)N)cc2)cc1 [pentamidine]
- Trypanocidal activity (Trypanosoma rhodesiense [1]): show trypanocidal activity

SMILES: CCN=C(NCC)NN=Cc1ccc(OCc2cn3ccccc3[n+]2C)cc1 [BL03933]
- Increase in survival (Trypanosoma rhodesiense [2]; 1.6 mg/kg, subcutaneous): 6.3 days
- Trypanocidal activity, cures (Trypanosoma rhodesiense [2]; 1.6 mg/kg, subcutaneous): 7/10
- Trypanocidal activity, cures (Trypanosoma rhodesiense [2]; 3.3 mg/kg, subcutaneous): 5/5
- Trypanocidal activity, cures (Trypanosoma rhodesiense [2]; 6.6 mg/kg, subcutaneous): 5/5

SMILES: CC(=O)Nc1ccc(-c2cn3ccccc3[n+]2C)cc1 [BJ83315]
- Increase in survival (Trypanosoma rhodesiense [2]; 106 mg/kg, subcutaneous): 3.7 days
- Increase in survival (Trypanosoma rhodesiense [2]; 212 mg/kg, subcutaneous): 6.4 days
- Trypanocidal activity, cures (Trypanosoma rhodesiense [2]; 212 mg/kg, subcutaneous): 3/5
- Increase in survival (Trypanosoma rhodesiense [2]; 424 mg/kg, subcutaneous): 2.9 days
- Trypanocidal activity, cures (Trypanosoma rhodesiense [2]; 424 mg/kg, subcutaneous): 9/10

SMILES: C=CC[n+]1c(-c2ccc(C=NNC(=N)N)cc2)cn2ccccc21 [BK11770]
- Trypanocidal activity, cures (Trypanosoma rhodesiense [2]; 13.3 mg/kg, subcutaneous): 5/5

SMILES: Cn1cc[n+](C)c1C=Cc1ccc(C=NNC2=NCCCN2)cc1 [BL21584]
- Trypanocidal activity, cures (Trypanosoma rhodesiense [2]; 6.6 mg/kg, subcutaneous): 5/5
- Trypanocidal activity, cures (Trypanosoma rhodesiense [2]; 13 mg/kg, subcutaneous): 10/10

SMILES: Cn1c(COc2ccc(C=NNC3=NCCN3)cc2)[n+](C)c2ccccc21 [BL10018]
- Increase in survival (Trypanosoma rhodesiense [2]; 0.4 mg/kg, subcutaneous): 6.8 days
- Trypanocidal activity, cures (Trypanosoma rhodesiense [2]; 0.4 mg/kg, subcutaneous): 3/5
- Trypanocidal activity, cures (Trypanosoma rhodesiense [2]; 1.6 mg/kg, subcutaneous): 10/10
- Trypanocidal activity, cures (Trypanosoma rhodesiense [2]; 6.6 mg/kg, subcutaneous): 5/5

SMILES: N=C(N)c1ccc(N=NNc2ccc(C(=N)N)cc2)cc1 [berenil]
- Trypanocidal activity (Trypanosoma rhodesiense [1]): show trypanocidal activity

SMILES: C[n+]1c(-c2ccc(C=NNC(N)=S)cc2)cn2ccccc21 [BJ90721]
- Increase in survival (Trypanosoma rhodesiense [2]; 26 mg/kg, subcutaneous): 4.4 days
- Increase in survival (Trypanosoma rhodesiense [2]; 53 mg/kg, subcutaneous): 7.8 days
- Trypanocidal activity, cures (Trypanosoma rhodesiense [2]; 53 mg/kg, subcutaneous): 1/5
- Increase in survival (Trypanosoma rhodesiense [2]; 106 mg/kg, subcutaneous): 7.5 days
- Trypanocidal activity, cures (Trypanosoma rhodesiense [2]; 106 mg/kg, subcutaneous): 3/5
- Increase in survival (Trypanosoma rhodesiense [2]; 212 mg/kg, subcutaneous): 18.0 days
- Trypanocidal activity, cures (Trypanosoma rhodesiense [2]; 212 mg/kg, subcutaneous): 4/5
- Trypanocidal activity, cures (Trypanosoma rhodesiense [2]; 424 mg/kg, subcutaneous): 5/5
- Increase in survival (Trypanosoma rhodesiense [2]; [3]): 1.9 days
- Trypanocidal activity, cures (Trypanosoma rhodesiense [2]; [3]): 1/10

SMILES: C[n+]1c(-c2ccc(-c3n[nH]c(N)n3)cc2)cn2ccsc21 [BK42720]
- Trypanocidal activity, cures (Trypanosoma rhodesiense [2]; 26.5 mg/kg, subcutaneous): 5/5

SMILES: C[n+]1ccccc1COc1ccc(C=NNC2=NCCCN2)cc1 [BL07646]
- Increase in survival (Trypanosoma rhodesiense [2]; 1.6 mg/kg, subcutaneous): 3.9 days
- Trypanocidal activity, cures (Trypanosoma rhodesiense [2]; 1.6 mg/kg, subcutaneous): 1/10
- Increase in survival (Trypanosoma rhodesiense [2]; 6.6 mg/kg, subcutaneous): 9.9 days
- Trypanocidal activity, cures (Trypanosoma rhodesiense [2]; 6.6 mg/kg, subcutaneous): 3/5
- Increase in survival (Trypanosoma rhodesiense [2]; 13 mg/kg, subcutaneous): 4.0 days
- Trypanocidal activity, cures (Trypanosoma rhodesiense [2]; 13 mg/kg, subcutaneous): 9/10

SMILES: C[n+]1c(-c2ccc(C(=N)N)cc2)cn2ccccc21 [BK16471]
- Increase in survival (Trypanosoma rhodesiense [2]; 13.3 mg/kg, subcutaneous): 3.2 days
- Trypanocidal activity, cures (Trypanosoma rhodesiense [2]; 13.3 mg/kg, subcutaneous): 2/10
- Trypanocidal activity, cures (Trypanosoma rhodesiense [2]; 26.5 mg/kg, subcutaneous): 10/10
- Trypanocidal activity, cures (Trypanosoma rhodesiense [2]; 53 mg/kg, subcutaneous): 5/5

SMILES: CSC(=N)NN=Cc1ccc(-c2cn3ccccc3[n+]2C)cc1 [BK47921]
- Trypanocidal activity, cures (Trypanosoma rhodesiense [2]; 26.5 mg/kg, subcutaneous): 5/5

SMILES: C[n+]1c(-c2ccc(C=NNC(=N)N3CCCC3)cc2)cn2ccccc21 [BK50277]
- Trypanocidal activity, cures (Trypanosoma rhodesiense [2]; 0.1 mg/kg, subcutaneous): 5/5
- Trypanocidal activity, cures (Trypanosoma rhodesiense [2]; 0.2 mg/kg, subcutaneous): 4/5
- Trypanocidal activity, cures (Trypanosoma rhodesiense [2]; 0.4 mg/kg, subcutaneous): 5/5
- Trypanocidal activity, cures (Trypanosoma rhodesiense [2]; 0.8 mg/kg, subcutaneous): 9/10
- Trypanocidal activity, cures (Trypanosoma rhodesiense [2]; 1.7 mg/kg, subcutaneous): 10/10
- Trypanocidal activity, cures (Trypanosoma rhodesiense [2]; 3.3 mg/kg, subcutaneous): 5/5

SMILES: C[n+]1c(-c2ccc(C=NNc3nccs3)cc2)cn2ccccc21 [BK50302]
- Increase in survival (Trypanosoma rhodesiense [2]; 0.2 mg/kg, subcutaneous): 2.0 days
- Trypanocidal activity, cures (Trypanosoma rhodesiense [2]; 0.2 mg/kg, subcutaneous): 3/5
- Trypanocidal activity, cures (Trypanosoma rhodesiense [2]; 0.4 mg/kg, subcutaneous): 5/5
- Increase in survival (Trypanosoma rhodesiense [2]; 0.8 mg/kg, subcutaneous): 15.0 days
- Trypanocidal activity, cures (Trypanosoma rhodesiense [2]; 0.8 mg/kg, subcutaneous): 4/5
- Activity at dosage (C = Cures) (Trypanosoma rhodesiense [2]; 106 mg/kg): INAC
- Activity at dosage (C = Cures) (Trypanosoma rhodesiense [2]; 212 mg/kg): INAC
- Activity at dosage (C = Cures) (Trypanosoma rhodesiense [2]; 424 mg/kg): INAC

SMILES: C[n+]1c(-c2ccc(C=NNC(N)=O)cc2)cn2ccsc21 [BK21918]
- Increase in survival (Trypanosoma rhodesiense [2]; 26.5 mg/kg, subcutaneous): 4.8 days
- Increase in survival (Trypanosoma rhodesiense [2]; 53 mg/kg, subcutaneous): 4.5 days

SMILES: C[n+]1c(C=Cc2ccc(C=NNC3=NCCCN3)cc2)cn2ccccc21 [BL11202]
- Trypanocidal activity, cures (Trypanosoma rhodesiense [2]; 0.4 mg/kg, subcutaneous): 5/5
- Increase in survival (Trypanosoma rhodesiense [2]; 1.6 mg/kg, subcutaneous): 6.8 days
- Trypanocidal activity, cures (Trypanosoma rhodesiense [2]; 1.6 mg/kg, subcutaneous): 9/10
- Trypanocidal activity, cures (Trypanosoma rhodesiense [2]; 6.6 mg/kg, subcutaneous): 5/5
- Trypanocidal activity, cures (Trypanosoma rhodesiense [2]; 26 mg/kg, subcutaneous): 15/15

SMILES: CCN(CC)CCN=C(N)NN=Cc1ccc(-c2cn3ccccc3[n+]2C)cc1 [BK46175]
- Increase in survival (Trypanosoma rhodesiense [2]; 0.83 mg/kg, (F), subcutaneous): 3.3 days
- Trypanocidal activity, cures (Trypanosoma rhodesiense [2]; 0.83 mg/kg, (F), subcutaneous): 2/5
- Increase in survival (Trypanosoma rhodesiense [2]; 0.83 mg/kg, M, subcutaneous): 6.3 days
